Drawing on patent publication US20120149694A1, “Substituted piperidines” (BAYER PHARMA AKTIENGESELLSCHAFT, priority 2009, published 2012), this text covers IC50 for five molecules.

As a reminder, the IC50 is the point on the concentration scale where inhibition reaches its midpoint.

The assay has as its target T1, human protease activated receptor 1 (PAR-1) (Homo sapiens, UniProt P25116).
T1 construct: the cell stably expresses the endogenous human PAR-1 receptor; endogenous in cells; host or cells: HEK293-derived recombinant cell line expressing mitochondrial aequorin
T1 sequence (P25116 22-425): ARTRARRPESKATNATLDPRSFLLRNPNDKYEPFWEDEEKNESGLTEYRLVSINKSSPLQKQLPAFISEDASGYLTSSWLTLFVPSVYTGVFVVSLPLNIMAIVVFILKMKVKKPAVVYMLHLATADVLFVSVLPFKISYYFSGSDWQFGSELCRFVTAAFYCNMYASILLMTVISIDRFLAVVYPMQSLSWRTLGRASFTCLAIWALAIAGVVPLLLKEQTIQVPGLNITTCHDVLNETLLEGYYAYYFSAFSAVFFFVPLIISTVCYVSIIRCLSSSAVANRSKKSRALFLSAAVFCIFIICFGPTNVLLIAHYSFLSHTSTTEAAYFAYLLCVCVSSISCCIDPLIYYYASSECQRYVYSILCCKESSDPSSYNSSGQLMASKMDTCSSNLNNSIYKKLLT
The experiment in a line: Cellular functional in vitro test (PAR-1 antagonism, aequorin luminescence calcium readout). In kind it is cell-based. Conditions: recombinant HEK293-derived aequorin cell line with endogenous PAR-1; PAR-1 agonist added at its EC50, 5 min after test substance. The text has this: A recombinant cell line is used to identify antagonists of the human protease activated receptor 1 (PAR-1) and to quantify the activity of the substances described herein. The cell is originally derived from a human embryonal kidney cell (HEK293; ATCC: American Type Culture Collection, Manassas, Va. 20108, USA). The test cell line constitutively expresses a modified form of the calcium-sensitive photoprotein aequorin which, after reconstitution with the cofactor coelenterazine, emits light when the free calcium concentration in the inner mitochondrial compartment is increased (Rizzuto R, Simpson A W, Brini M, Pozzan T.; Nature 1992, 358, 325-327). Additionally, the cell stably expresses the endogenous human PAR-1 receptor and the endogenous purinergic receptor P2Y2. The resulting PAR-1 test cell responds to stimulation of the endogenous PAR-1 or P2Y2 receptor with an intracellular release of calcium ions, which can be quantified through the resulting aequorin luminescence with a suitable luminometer (Milligan G, Marshall F, Rees S, Trends in Pharmacological Sciences 1996, 17, 235-237).
For the testing of the substance specificity, the effect thereof after activation of the endogenous PAR-1 receptor is compared with the effect after activation of the endogenous purinergic P2Y2 receptor which utilizes the same intracellular signal path.
Test procedure: The cells are plated out two days (48 h) before the test in culture medium (DMEM F12, supplemented with 10% FCS, 2 mM glutamine, 20 mM HEPES, 1.4 mM pyruvate, 0.1 mg/ml gentamycin, 0.15% Na bicarbonate; BioWhittaker Cat.# BE04-687Q; B-4800 Verviers, Belgium) in 384-well microtitre plates and kept in a cell incubator (96% atmospheric humidity, 5% v/v CO2, 37° C.). On the day of the test, the culture medium is replaced by a tyrode solution (in mM: 140 sodium chloride, 5 potassium chloride, 1 magnesium chloride, 2 calcium chloride, 20 glucose, 20 HEPES), which additionally contains the cofactor coelenterazine (25 μM) and glutathione (4 mM), and the microtitre plate is then incubated for a further 3-4 hours. The test substances are then pipetted onto the microtitre plate, and 5 minutes after the transfer of the test substances into the wells of the microtitre plate the plate is transferred into the luminometer, a PAR-1 agonist concentration which corresponds to EC50 is added and the resulting light signal is immediately measured in the luminometer. To distinguish an antagonist substance action from a toxic action, the endogenous purinergic receptor is immediately subsequently activated with agonist (ATP, final concentration 10 μM) and the resulting light signal is measured.
Take `CC(C)(C)C(=O)NCC1CC(c2ccc(C(F)(F)F)cc2)CN(C(=O)N2CCOCC2)C1` (racemic) [Example 1, 2,2-Dimethyl-N-({1-(morpholin-4-ylcarbonyl)-5-[4-(trifluoromethyl)phenyl]piperidin-3-yl}methyl)propaneamide]: the concentration for half-maximal inhibition (IC50) stood at 177 nM. The value for `O=C(CC1CC(c2ccc(C(F)(F)F)cc2)CN(C(=O)N2CCOCC2)C1)Nc1ccccc1` (racemic) [Example 15, 2-{1-(Morpholin-4-ylcarbonyl)-5-[4-(trifluoromethyl)phenyl]piperidin-3-yl}-N-phenylacetamide] was 56 nM.

Regarding `O=C(N1CCOCC1)N1CC(CSc2cccc(F)c2)CC(c2ccc(C(F)(F)F)cc2)C1` (racemic) [Example 40, (3-{[(3-Fluorophenyl)sulphanyl]methyl}-5-[4-(trifluoromethyl)phenyl]piperidin-1-yl)(morpholin-4-yl)methanone], the IC50 came out at 3 nM.

As to `O=C(N1CCOCC1)N1CC(CS(=O)(=O)C2CCCC2)CC(c2ccc(C(F)(F)F)cc2)C1` (racemic) [Example 48, {3-[(Cyclopentylsulphonyl)methyl]-5-[4-(trifluoromethyl)phenyl]piperidin-1-yl}(morpholin-4-yl)methanone], the IC50 was determined as 24 nM. The result for `CS(=O)(=O)NCC1CC(c2ccc(C(F)(F)F)cc2)CN(C(=O)N2CCOCC2)C1` (single isomer, unassigned) [Example 6, N-({1-(Morpholin-4-ylcarbonyl)-5-[4-(trifluoromethyl)phenyl]piperidin-3-yl}methyl)methanesulphonamide] reads 8 nM.
